Measured values from patent publication US20150093333A1, “COMPOSITIONS, METHODS AND USES FOR PEPTIDES IN DIAGNOSIS, PROGRESSION AND TREATMENT OF CANCERS” (THE REGENTS OF THE UNIVERSITY OF COLORADO, body corporate, priority 2003, published 2015).
Like-named read-outs stand apart in the source and are kept apart here.

Tests used:
[1] = molecular target: lipid vesicles; test: Fluorescence anisotropy titration of BK derived peptides with lipid vesicles; assay type: binding; conditions: read-out: Dissociation constant (Kd)
Method: In another method, synthetic lipid vesicles of various sizes were prepared to model different membrane curvatures for testing interactions. Three compositions of vesicles were designed to closely resemble natural biological membranes named lipid model (LM) 1, 2, and 3. These vesicles were prepared by extrusion under inert, pressure-controlled method through polycarbonate membranes with pore sizes of 400, 80, and 30 nm to cover a wide range of curvatures. Since curvature is defined as the inverse of radius, the smallest size represents vesicles with the highest curvature. […] These vesicles were further characterized by transmission electron microscopy (TEM) to verify the sizes found by DLS.
In other exemplary methods, binding strength of the interactions were assessed. Fluorescence anisotropy (FA) assay was adopted to measure the binding constants. The peptide partitions between the hydrophobic lipid bilayer and the aqueous solvent and the dissociation constant (Kd) calculated as the reciprocal of the molar partition coefficient. A constant concentration of peptide was titrated with increasing concentration of lipid vesicles and the FA due to the change in the rotational time of the small peptide when it binds to the relatively bigger lipid vesicles was measured and plotted versus the total lipid concentration. […] Fluorescence anisotropy titration was performed to obtain the Kd values. Lower values indicate stronger binding. LM=liposome model. [Peptide]=1 μM; [Lipid titrant]=2 mM.

[2] = test system: exosomes (Ex); test: Fluorescence enhancement of BK derived peptides with exosomes from rat blood plasma; assay type: binding; conditions: Ex treated peptide vs untreated
Excerpt: In support of the observations with synthetic vesicles to translate to naturally-occurring extracellular vesicles, exosomes (Ex) purified from blood plasma of rats underwent inescapable tailshock stress as an acceptable model of exosome release. Ex have diameters of 40-100 nm, therefore providing a good biological model for testing the curvature-sensing peptides. […] The total number of Ex in the sample was counted by nanoparticle tracking analysis to ensure that is in the same order of magnitude as the 500 μM lipids in the synthetic models.

[3] = test system: PS-exposing cell membranes; test: Fluorescence staining of PS-exposing membranes in dissected gonads of C. elegans; assay type: in vivo; conditions: wild type (N2), tat-1(tm3117) and ced-7(n2094) animals
Method: Fluorescence staining assays were carried out in an acceptible C. elegans model with PS-exposing cell membranes. […] NBD-MARCKS-ED was used to stain the dissected gonads of wild type (N2) animals, tat-1(tm3117) mutant animals, and engulfment-deficient ced-7 (n2094) mutant animals, respectively. 36 hour old hermaphrodite adult animals were collected and gently dissected by cutting their heads in a depression slide with a gonad dissection buffer (previously presented) to expose the gonads. The exposed gonads were then washed once in the dissection buffer and transferred to a dissection buffer containing 4 μM of Hoechst 33342 and 20 μM of NBD labeled MARCKS-ED peptide, 20 μM NBD-MARCKSmut1 peptide, or 10 nM Alexa Fluor 488-conjugated Annexin-V for 45 minutes. Gonads were washed one more time in the dissection buffer, placed on a 5% agarose pad, and visualized using a Nomarski microscope equipped with an epifluorescence detector.
FIGS. 6A-6C illustrate exemplary staining results using MARCKS derived peptides and Annexin V. PS is typically kept in the inner leaflet of plasma membranes in living cells and is exposed on the cell surface only under certain cellular events, i.e., when cells undergo apoptosis or lose the ability to maintain the PS asymmetry with a tat-1 gene mutation. FIG. 6A represents the staining results with labeled MARCKS-ED in wild type and mutants C. elegans. […] FIG. 6B represents the staining results with labeled MARCKSmut1 in wild type and mutants C. elegans. […] In FIGS. 6A-6B, nuclei were stained with Hoechst 33342. Annexin-V, a known PS-sensor, was also used to stain the gonads of tat-1 and ced-7 mutant C. elegans. […] Hoechst33342 (4 μM), FITC-AnnexinV (10 nM) and Nomarski images are shown. […] Scale bar=10 μm.

[4] = test system: isolated microvesicles; test: Fluorescence enhancement with isolated rat microvesicles; assay type: binding
Method: In another exemplary method, having established the simultaneous curvature- and PS-sensing by MARCKS-ED in synthetic liposomes, MARCKS-ED was tested on detection of highly curved, PS-enriched particles in a complex biological system. Microvesicles (ø=0.03-1 μm) are highly curved lipid vesicles that shed into body fluids (e.g., blood, urine, ascitic fluid). These vesicles are released by cancerous cells in which lipid asymmetry is de-regulated, contributing to externalization and enrichment of PS on their outer leaflet. The microvesicle detecting ability of MARCKS-ED was investigated using plasma samples from a stressed rat model. […]
Microvesicles in these samples were characterized by TEM imaging, and ELISA of detection of the signature CD63 protein and the membrane transport protein Rab5b exposed on the surface. Particles expressing both proteins were captured by antibodies and quantified in a colorimetric endpoint assay.
These isolated microvesicles were measured by nanoparticle tracking analysis (NTA) to confirm their average size (ø=56 nm). Tracking analyses were performed using the NanoSight LM10-HS instrument (Amesbury, UK) equipped with a 532 nm laser and observed at scatter and fluorescence modes (filter=550 nm). […]
Monitored at λex=295 nm, Annexin-V (0.32 μM) was treated with CaCl2 (3 mM) in TES buffer and with 500 μM lipid vesicles of varying PS content. […]

Substance	Kd ([1]; LM 1 V58) [µM]	Kd ([1]; LM 1 V116) [µM]	Kd ([1]; LM 1 V454) [µM]	Kd ([1]; LM 2 V116) [µM]	Kd ([1]; LM 2 V454) [µM]	Kd ([1]; LM 2 V) [µM]	Kd ([1]; LM 3 V58) [µM]	Kd ([1]; LM 3 V116) [µM]	Kd ([1]; LM 3 V454) [µM]	fluorescence intensity [2] [RFU]	staining of PS-exposed membranes [3]	binding to isolated microvesicles (fluorescence enhancement) [4]
monomeric Bradykinin derivative: GRPPGFSPFR with ε-azidolysine and NBD-X fluorophore at the N-terminus [Peptide 1]	996 ± 230	940 ± 160	7.14	585 ± 62	> 1000	488 ± 72	407 ± 56	893 ± 101	902 ± 141	3.09±0.08	–	–
Annexin-V: established PS-sensing protein, positive control [reference compound]	–	–	–	–	–	–	–	–	–	–	germ cell corpses stained with both Hoechst and FITC-AnnexinV protein	Fluorescence enhancement was observed
